In US20250320184A1 (SIRONAX LTD., priority 2022, published 2025):

The compounds below were run against T1, SARM1 (50-724) (Homo sapiens, UniProt Q6SZW1) (assay: biochemical).
T1 sequence (Q6SZW1 50-724): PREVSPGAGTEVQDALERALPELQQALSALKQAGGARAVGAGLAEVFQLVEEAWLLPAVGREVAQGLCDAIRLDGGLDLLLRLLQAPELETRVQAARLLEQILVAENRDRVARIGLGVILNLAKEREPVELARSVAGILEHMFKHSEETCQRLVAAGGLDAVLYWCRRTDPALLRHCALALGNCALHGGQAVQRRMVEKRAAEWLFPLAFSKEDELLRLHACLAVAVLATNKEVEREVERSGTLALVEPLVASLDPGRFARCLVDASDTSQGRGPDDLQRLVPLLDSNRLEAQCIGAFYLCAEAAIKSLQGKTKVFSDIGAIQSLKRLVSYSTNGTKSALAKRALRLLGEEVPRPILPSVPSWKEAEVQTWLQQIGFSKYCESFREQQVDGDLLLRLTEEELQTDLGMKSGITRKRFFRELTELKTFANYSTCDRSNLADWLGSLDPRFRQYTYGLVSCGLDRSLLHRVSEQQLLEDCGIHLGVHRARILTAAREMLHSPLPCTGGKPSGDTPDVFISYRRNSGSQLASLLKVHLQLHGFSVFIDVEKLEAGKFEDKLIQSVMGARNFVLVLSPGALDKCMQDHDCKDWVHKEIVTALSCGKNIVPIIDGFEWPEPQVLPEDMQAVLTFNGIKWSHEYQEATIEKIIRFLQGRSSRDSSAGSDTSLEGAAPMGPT
Procedure: An enzymatic assay was performed in a 384-well plate using Dulbecco's phosphate-buffered saline (PBS) as the reaction buffer. […] The reaction was initiated by adding a mixture of 200 μM nicotinamide mononucleotide (NMN) as activator and 100 μM NAD^+ as substrate. After 1 h of incubation at room temperature, the reaction was terminated with 10 times volume of 70% acetonitrile, then centrifuged at 3800 rpm for 10 min.

Row | Structure (SMILES) | IC50 [nM]
1 | CC(Nc1ccc2cc[nH]c(=O)c2c1)c1c(Cl)ccc(Cl)c1Cl (racemic) [Compound 185, 7-((1-(2,3,6-trichlorophenyl)ethyl)amino)isoquinolin-1(2H)-one] | < 100
2 | [2H]C(C)(Nc1ccc2c(C)n(CC(N)=O)nc2c1)c1nc(Cl)c(Cl)s1 (racemic) [Compound 376, 2-(6-((1-(4,5-dichlorothiazol-2-yl)ethyl-1-d)amino)-3-methyl-2H-indazol-2-yl)acetamide] | < 100
3 | Cc1c2c(F)cc(NC(C)c3nc(Cl)c(Cl)s3)cc2nn1CC(N)=O (racemic) [Compound 389, 2-(6-((1-(4,5-dichlorothiazol-2-yl)ethyl)amino)-4-fluoro-3-methyl-2H-indazol-2-yl)acetamide] | < 100
4 | CC1(C)CN(C(=O)C2CC2)c2cc(NS(=O)(=O)c3cccc(Cl)c3Cl)ccc21 [Compound 243, 2,3-dichloro-N-(1-(cyclopropanecarbonyl)-3,3-dimethylindolin-6-yl)benzenesulfonamide] | < 100
5 | CC(Nc1ccc2c(C(F)F)n(CC(N)=O)nc2c1)c1c(F)ccc(Cl)c1Cl (racemic) [Compound 365, 2-(6-((1-(2,3-dichloro-6-fluorophenyl)ethyl)amino)-3-(difluoromethyl)-2H-indazol-2-yl)acetamide] | < 100
6 | CC(Nc1cc(F)c2ncn(-c3ccn[nH]3)c(=O)c2c1)c1nc(Cl)c(Cl)s1 (racemic) [Example 356rac, 6-((1-(4,5-dichlorothiazol-2-yl)ethyl)amino)-8-fluoro-3-(1H-pyrazol-5-yl)quinazolin-4(3H)-one] | < 100
7 | CC(Nc1ccc2c(C(F)F)n(CC(N)=O)nc2c1)c1nc(Cl)c(Cl)s1 (racemic) [Compound 355, 2-(6-((1-(4,5-dichlorothiazol-2-yl)ethyl)amino)-3-(difluoromethyl)-2H-indazol-2-yl)acetamide] | < 100
8 | Cc1nc(C(C)Nc2ccc3cc[nH]c(=O)c3c2)sc1C (racemic) [Example 213, 7-((1-(4,5-dimethylthiazol-2-yl)ethyl)amino)isoquinolin-1(2H)-one] | < 100
9 | Cc1snc(C(C)Nc2ccc3nc[nH]c(=O)c3c2)c1Cl (racemic) [Compound 260, 6-((1-(4-chloro-5-methylisothiazol-3-yl)ethyl)amino)quinazolin-4(3H)-one] | 100 to 500
10 | O=c1[nH]ccc2ccc(NC(CCO)c3cccc(Cl)c3Cl)cc12 (racemic) [Compound 252, 7-((1-(2,3-dichlorophenyl)-3-hydroxypropyl)amino)isoquinolin-1(2H)-one] | < 100
11 | CC(Nc1ccc2c(c1)NC(=O)C2(C)C)c1c(Cl)ccc(F)c1Cl (racemic) [Compound 215, 6-[1-(2,6-dichloro-3-fluoro-phenyl)ethylamino]-3,3-dimethyl-indolin-2-one] | < 100
12 | CC(Nc1ccc2cn[nH]c(=O)c2c1)c1c(Cl)ccc(F)c1Cl (stereo not shown) [Example 199] | < 100
13 | CC(Nc1cc(F)c2ncn(-c3cn[nH]c3)c(=O)c2c1)c1nc(Cl)c(Cl)s1 (single isomer, unassigned) [Example 374] | < 100
14 | O=C1NCCc2ccc(NC(c3ccccc3)c3ccccc3)cc21 [Example 124, 7-(benzhydrylamino)-3,4-dihydroisoquinolin-1(2H)-one] | > 1000
15 | CC(Nc1ccc2nc[nH]c(=O)c2c1)c1c(Cl)ccc(F)c1Cl (single isomer, unassigned) [Example 201] | < 100
16 | CC1N(C(=O)CC(N)=O)c2cc(NS(=O)(=O)c3cccc(Cl)c3Cl)ccc2C1(C)C (racemic) [Compound 329, 3-(6-((2,3-dichlorophenyl)sulfonamido)-2,3,3-trimethylindolin-1-yl)-3-oxopropanamide] | < 100
17 | CC1(C)c2ccc(NS(=O)(=O)c3cccc(Cl)c3Cl)cc2C(=O)N1CC(N)=O [Compound 289, 2-(5-((2,3-dichlorophenyl)sulfonamido)-1,1-dimethyl-3-oxoisoindolin-2-yl)acetamide] | < 100
18 | Cc1n[nH]c(=O)c2nc(NC(C)c3nn(C)c(Cl)c3Cl)ccc12 (racemic) [Compound 311, 2-((1-(4,5-dichloro-1-methyl-1H-pyrazol-3-yl)ethyl)amino)-5-methylpyrido[2,3-d]pyridazin-8(7H)-one] | < 100
19 | CC(C)c1c[nH]c(=O)c2cc(NS(=O)(=O)c3cccc(Cl)c3Cl)ccc12 [Compound 66, 2,3-dichloro-N-(4-isopropyl-1-oxo-1,2-dihydroisoquinolin-7-yl)benzenesulfonamide] | > 1000
20 | CC1(C)CN(C(=O)C2(C(N)=O)CC2)c2cc(NS(=O)(=O)c3cccc(Cl)c3Cl)ccc21 [Compound 313, 1-(6-((2,3-dichlorophenyl)sulfonamido)-3,3-dimethylindoline-1-carbonyl)cyclopropane-1-carboxamide] | < 100

Row | Structure (SMILES) | IC50 [nM]
21 | CC(Nc1ccc2c(c1)C(=O)NC2(C)C)c1nc(Cl)c(Cl)s1 (racemic) [Compound 278, 6-[1-(4,5-dichlorothiazol-2-yl)ethylamino]-3,3-dimethyl-isoindolin-1-one] | < 100
22 | CC(Nc1ccc2nc[nH]c(=O)c2n1)c1c(Cl)ccc(F)c1Cl (racemic) [Compound 259, 6-((1-(2,6-dichloro-3-fluorophenyl)ethyl)amino)pyrido[3,2-d]pyrimidin-4(3H)-one] | < 100
23 | Cc1ccc(C(C)Nc2ccc3c(c2)C(=O)NCC3)cc1F (racemic) [Example 123, 7-((1-(3-fluoro-4-methylphenyl)ethyl)amino)-3,4-dihydroisoquinolin-1(2H)-one] | > 1000
24 | CC(Nc1ccc2nc[nH]c(=O)c2n1)c1c(F)ccc(Cl)c1Cl (single isomer, unassigned) [Compound 388] | > 1000
25 | Cc1c(F)cccc1S(=O)(=O)Nc1ccc2c(c1)C(=O)OCC2 [Compound 5, 3-fluoro-2-methyl-N-(1-oxoisochroman-7-yl)benzenesulfonamide] | > 1000
26 | C[C@H](Nc1ccc2ccnc(O)c2c1)c1cccc(Cl)c1 [Compound 92, (S)-7-((1-(3-chlorophenyl)ethyl)amino)isoquinolin-1-ol] | 100 to 500
27 | CC(Nc1ccc2c(c1)NC(=O)CCC2)c1nc(Cl)c(Cl)s1 (racemic) [Compound 229, 8-[1-(4,5-dichlorothiazol-2-yl)ethylamino]-1,3,4,5-tetrahydro-1-benzazepin-2-one] | 100 to 500
28 | CC(Nc1ccc2cc[nH]c(=O)c2c1)c1cccc(F)c1Cl (racemic) [Example 139, 7-((1-(2-chloro-3-fluorophenyl)ethyl)amino)isoquinolin-1(2H)-one] | 100 to 500
29 | Cc1c(Br)cccc1S(=O)(=O)Nc1ccc2c(c1)C(=O)NCCC2 [Compound 40, 3-bromo-2-methyl-N-(1-oxo-2,3,4,5-tetrahydro-1H-benzo[c]azepin-8-yl)benzenesulfonamide] | < 100
30 | Cc1n[nH]c(=O)c2cc(NC(C)c3nc(Cl)c(Cl)s3)ccc12 (single isomer, unassigned) [Example 239B] | > 1000
31 | CC1(C)C(=O)N(CC(=O)N2CCCCC2)c2cc(NS(=O)(=O)c3cccc(Cl)c3Cl)ccc21 [Example 286, 2,3-dichloro-N-(3,3-dimethyl-2-oxo-1-(2-oxo-2-(piperidin-1-yl)ethyl)indolin-6-yl)benzenesulfonamide] | < 100
32 | Cc1c2ccc(NC(C)c3sc(Cl)nc3Cl)cc2nn1CC(N)=O (single isomer, unassigned) [Compound 347] | < 100
33 | N#CCn1ccc2ccc(NS(=O)(=O)c3cccc(Cl)c3Cl)cc2c1=O [Compound 80, 2,3-dichloro-N-(2-(cyanomethyl)-1-oxo-1,2-dihydroisoquinolin-7-yl)benzenesulfonamide] | 100 to 500
34 | NC(=O)Cn1ccc2ccc(NS(=O)(=O)c3cccc(Cl)c3Cl)cc2c1=O [Compound 306, 2-(7-((2,3-dichlorophenyl)sulfonamido)-1-oxoisoquinolin-2(1H)-yl)acetamide] | < 100
35 | CC(Nc1ccc2nc[nH]c(=O)c2c1)c1cccc(Cl)c1Cl (single isomer, unassigned) [Example 152] | < 100
36 | CC(Nc1cc(F)c2ncn(C3CC(O)C3)c(=O)c2c1)c1cncc(Cl)c1Cl (mixture of isomers) [Compound 348, 6-((1-(4,5-dichloropyridin-3-yl)ethyl)amino)-8-fluoro-3-(3-hydroxycyclobutyl)quinazolin-4(3H)-one] | < 100
37 | Cc1nc(C(C)Nc2ccc3nc[nH]c(=O)c3c2)sc1Cl (racemic) [Compound 216, 6-((1-(5-chloro-4-methylthiazol-2-yl)ethyl)amino)quinazolin-4(3H)-one] | < 100
38 | CC(Nc1ccc2nc[nH]c(=O)c2n1)c1ccc(F)c(Cl)c1Cl (single isomer, unassigned) [Compound 385] | > 1000
39 | CC(Nc1ccc2c(c1)C(=O)NCC2)c1cccc(F)c1F (racemic) [Example 106, 7-((1-(2,3-difluorophenyl)ethyl)amino)-3,4-dihydroisoquinolin-1(2H)-one] | > 1000
40 | O=S(=O)(Nc1ccc2ccncc2c1)c1cccc(Cl)c1Cl [Compound 43, 2,3-dichloro-N-(isoquinolin-7-yl)benzenesulfonamide] | 100 to 500
